Measured values: US20250066379A1, “ANTIMALARIAL AGENTS” (Merck Sharp & Dohme LLC, priority 2021, published 2025)

Tested on: parasite
Experiment: Parasite LDH growth assay (Parasite Assay)
Format: cell-based, Plasmodium falciparum
Conditions: Plasmodium falciparum, 72 h, ring stage parasites, 72 hours growth at 37° C., LDH readout of parasite growth
Experimental: Assessing Antiparasite Potency in a Parasite LDH Growth Assay (Parasite Assay) The parasite stock was maintained at 4% haematocrit in RPMI-Hepes media 30 buffered with sodium bicarbonate and supplemented with 5% heat inactivated human serum and 0.5% albumax. Approximately 42 hours prior to the potency assay being set up, parasites were synchronized with 5% sorbitol to select for ring stage parasites. On the day of assay set up, a blood smear of the parasite culture was Giemsa stained and counted. The parasitemia was 35 adjusted to 0.7% rings and the haematocrit was diluted to 2% in RPMI-Hepes media buffered with sodium bicarbonate and supplemented with 5% heat inactivated human serum and 0.5% albumax. 30 ul of diluted parasites are then added into 10 μl of media+compound in pre-prepared Greiner TC assay plates. Parasite assay plates were placed in gassed humidified boxes in single layer and allowed to incubate at 37° C. for 72 hours. After 72 hours growth, assay plates are sealed with parafilm and frozen flat, in single file at −80° C. overnight. On the following day, assay plates were allowed to thaw at room temperature for 4 hours to which an LDH assay was performed to measure parasite growth.

Row | SMILES | EC50 [nM]
1 | CC[C@]12CCC/C=C\c3ccc4c(c3)[C@@H](NC(=O)c3ccc5c(c3)[C@@H](CCO5)N(C(=N)N1)C(=O)C2)[C@H](O)C4 [Example 6, (1R,5R,9Z,16R, 17R)-5-ethyl-16-hydroxy-3-imino-24-oxa-2,4,18-triazahexacyclo[18. 6.2.22,5.211,14.013, 17.023,27] dotriaconta-9,11,13,20,22,27, 29-heptaene-19,32-dione] | 2.8
2 | CC[C@]12CCC/C=C/c3ccc4c(c3)[C@H](CC(C)(C)O4)NC(=O)c3ccc4c(c3)[C@@H](CCO4)N(C(=N)N1)C(=O)C2 [Example 7, (1R,5R,9E,18S)-5-ethyl-3-imino-16,16-dimethyl-15,25-dioxa-2,4,19-triazahexacyclo[19. 6.2.22,5.211,14.013, 18.024,28] tritriaconta-9,11,13,21,23,28, 30-heptaene-20,33-dione] | 0.9
3 | CC[C@]12CCCCCc3ccc4c(c3)[C@H](CC(C)(C)O4)NC(=O)c3ccc4c(c3)[C@@H](CCO4)N(C(=N)N1)C(=O)C2 [Example 8, (1R,5R,18S)-5-ethyl-3-imino-16,16-dimethyl-15,25-dioxa-2,4,19-triazahexacyclo[19. 6.2.22,5.211,14.013, 18.024,28] tritriaconta-11,13,21,23,28,30-hexaene-20,33-dione] | 1.1
4 | CC[C@@]12CCCCCc3ccc4c(c3)[C@H](CC(C)(C)O4)NC(=O)c3ccc4c(c3)[C@@H](CCO4)N(C(=N)N1)C(=O)C2 [Example 9, (1R,5S,18S)-5-ethyl-3-imino-16,16-dimethyl-15,25-dioxa-2,4,19-triazahexacyclo[19. 6.2.22,5.211,14.013, 18.024,28] tritriaconta-11,13,21,23,28,30-hexaene-20,33-dione] | 76.5
5 | CC[C@]12CCC/C=C\Cc3ccc4c(c3)[C@H](CC(C)(C)O4)NC(=O)c3ccc4c(c3)[C@@H](CCO4)N(C(=N)N1)C(=O)C2 [Example 10, (1R,5R,9Z,19S)-5-ethyl-3-imino-17,17-dimethyl-16,26-dioxa-2,4,20-triazahexacyclo[20. 6.2.22,5.212,15.014, 19.025,29] tetratriaconta-9,12,14,22(30),23, 25(29),31-heptaene-21,34-dione] | 2.5
6 | CC[C@]12CCC/C=C/Cc3ccc4c(c3)OC(C)(C)C[C@@H]4NC(=O)c3ccc4c(c3)[C@@H](CCO4)N(C(=N)N1)C(=O)C2 [Example 11, (1R,5R,9E,20S)-5-ethyl-3-imino-18,18-dimethyl-17,27-dioxa-2,4,21-triazahexacyclo[21. 6.2.22,5.112,16.015, 20.026,30] tetratriaconta-9,12(32),13,15,23, 25,30-heptaene-22,34-dione] | 4.6
7 | CC[C@]12CCCCCCc3ccc4c(c3)[C@H](CC(C)(C)O4)NC(=O)c3ccc4c(c3)[C@@H](CCO4)N(C(=N)N1)C(=O)C2 [Example 12, (1R,5R,19S)-5-ethyl-3-imino-17,17-dimethyl-16,26-dioxa-2,4,20-triazahexacyclo[20. 6.2.22,5.212,15.014, 19.025,29] tetratriaconta-12,14,22(30),23, 25(29),31-hexaene-21,34-dione] | 1
8 | CC[C@@]12CCCCCCc3ccc4c(c3)OC(C)(C)C[C@@H]4NC(=O)c3ccc4c(c3)[C@@H](CCO4)N(C(=N)N1)C(=O)C2 [Example 13, (1R,5S,20S)-5-ethyl-3-imino-18,18-dimethyl-17,27-dioxa-2,4,21-triazahexacyclo[21. 6.2.22,5.112,16.015, 20.026,30] tetratriaconta-12(32),13,15,23,25, 30-hexaene-22,34-dione] | 22
9 | CC[C@]12CCCCCCc3ccc4c(c3)OC(C)(C)C[C@@H]4NC(=O)c3ccc4c(c3)[C@@H](CCO4)N(C(=N)N1)C(=O)C2 [Example 14, (1R,5R,20S)-5-ethyl-3-imino-18,18-dimethyl-17,27-dioxa-2,4,21-triazahexacyclo[21. 6.2.22,5.112,16.015, 20.026,30] tetratriaconta-12(32),13,15,23, 25,30-hexaene-22,34-dione] | 34
10 | CCC12CCCCCc3ccc4c(c3)[C@H](CC(C)(C)O4)NC(=O)c3ccc4c(c3)[C@@H]([C@H](COC)CO4)N(C(=N)N1)C(=O)C2 (stereo partly drawn) [Example 16A, (1R,18S,27R)-5-ethyl-3-imino-27-(methoxymethyl)-16,16-dimethyl-15,25-dioxa-2,4,19-triazahexacyclo[19. 6.2.22,5.211,14.013, 18.024,28] tritriaconta-11,13,21,23,28,30-hexaene-20,33-dione] | 61.5
